{
  "source": "PubChem BioAssay AID1259332",
  "about": "(Broad Institute, 2017)",
  "note": "Active and inactive are the calls of the source. The rule behind the calls is not given here. Starred links: 1 amine or outer side, 2 acyl side, 3 side chain; linkers in the order of their positions; H or OH if unused. Positions of bridges follow the written chain, without caps; N, C: chain ends. Non-standard residues stand in square brackets, D forms with d. Residues, ends and D or L forms follow the SMILES beside them. Chains are numbered I, II in the order given. Actinocin(9to1) = Cc1c2oc3c(C)ccc(C(=O)[*:1])c3nc-2c(C(=O)[*:2])c(N)c1=O; NMeV = CN[CH](C(=O)O)C(C)C; Sar = CNCC(=O)O",
  "data": [
    {"test_system": "B cell line, CD40 signaling inhibition reporter", "experiment": "inhibitors of CD40 signaling, dose response, B cell lineage (AID 1259332);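 note: cells stimulated with CD40 ligand tCD40L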", "values": [
      {"smiles": "O=C(/C=C/c1ccccc1)CC(O)(c1ccccc1)C(F)(F)C(F)F", "note": "(configuration not stated)", "AC50": "6.39 µM"},
      {"smiles": "C[C@H]1CN([C@@H](C)CO)C(=O)c2ccccc2-c2ccccc2CO[C@@H]1CN(C)Cc1ccccc1C(F)(F)F", "AC50": "7.28 µM"},
      {"smiles": "C1CCC(C(CC2CCCCN2)C2CCCCC2)CC1", "note": "(configuration not stated)", "AC50": "2.39 µM"},
      {"smiles": "C[C@@H]1CN([C@@H](C)CO)C(=O)c2c(c3ccccc3n2C)-c2ccccc2CO[C@H]1CN(C)Cc1cccc(C(=O)Nc2ccccc2N)c1", "AC50": "> 20 µM (inactive)"},
      {"smiles": "O=C(C[C@@H]1CC[C@H]2[C@@H](COC[C@@H](O)CN2Cc2cc(F)ccc2F)O1)NCc1ccc(Oc2ccccc2)cc1", "AC50": "> 20 µM (inactive)"},
      {"smiles": "O=C(Cc1ccccc1)N1CC[C@@H]2[C@H]1c1cc(C#Cc3cccc(F)c3)ccc1N[C@@H]2CO", "AC50": "5.19 µM"},
      {"smiles": "N#C[C@@H]1[C@@H](c2ccccc2-c2ccc(F)cc2)[C@H](CO)N1C(=O)NC1CCCCC1", "AC50": "> 22 µM (inactive)"},
      {"smiles": "O=C1NC2C(O)C(O)C(O)C(O)C2c2cc3c(c(O)c21)OCO3", "note": "(configuration not stated)", "AC50": "0.155 µM"},
      {"smiles": "C[C@@H]1CCCCO[C@@H](CN(C)Cc2ccc(Cl)c(Cl)c2)[C@H](C)CN([C@H](C)CO)C(=O)c2cc(NS(=O)(=O)c3cccs3)ccc2O1", "AC50": "7.26 µM"},
      {"smiles": "COc1ccc(S(=O)(=O)Nc2ccc3c(c2)C(=O)N([C@@H](C)CO)C[C@@H](C)[C@@H](CN(C)Cc2ccc(C(F)(F)F)cc2)OCCCC[C@H](C)O3)cc1", "AC50": "> 7 µM (inactive)"},
      {"smiles": "O=C(COC(=O)c1ccccc1C(=O)c1ccc(Cl)c([N+](=O)[O-])c1)NC1CC1", "AC50": "1.62 µM"},
      {"smiles": "COc1ccc(CC2C(=O)NC(C)C(=O)N(C)C3C(=O)N(C)C(Cc4ccc(O)c(c4)Oc4ccc(cc4)C3O)C(=O)NC(C)C(=O)NC(C)C(=O)N2C)cc1", "note": "(configuration not stated)", "AC50": "0.00902 µM"},
      {"smiles": "CCS(=O)(=O)N1[C@H](CO)[C@@H](c2ccc(C#Cc3ccccc3F)cc2)[C@@H]1C#N", "AC50": "4.12 µM"},
      {"smiles": "Nc1ccc(-c2cccc3c(=O)cc(N4CCOCC4)oc23)cc1", "AC50": "10.9 µM"},
      {"smiles": "Cc1cc(C)nc(Sc2ncnc(N)c2[N+](=O)[O-])n1", "AC50": "2.63 µM"},
      {"smiles": "CC12CCC3C(CCC4(O)CC(O)CCC34C=NO)C1(O)CCC2C1=COC(=O)C1", "note": "(configuration not stated)", "AC50": "0.586 µM"},
      {"smiles": "O=C(C1CC1)N1C[C@@H]2N[C@H](C1)[C@@H]2c1ccc(-c2ccncc2)cc1", "AC50": "5.72 µM"},
      {"smiles": "CC(C)(C)NCC(=Cc1ccccc1)C(=O)c1ccccc1", "AC50": "7.22 µM"},
      {"smiles": "CN(C)C(=S)SSC(=S)N(C)C", "AC50": "0.152 µM"},
      {"smiles": "COc1ccc(S(=O)(=O)Nc2ccc3c(c2)C(=O)N([C@@H](C)CO)C[C@H](C)[C@@H](CN(C)Cc2ccc(C(F)(F)F)cc2)OCCCC[C@@H](C)O3)cc1", "AC50": "7.3 µM"},
      {"smiles": "O=C(Cn1ncc(Cl)c(Cl)c1=O)NC1CCCCC1", "AC50": "4.96 µM"},
      {"smiles": "O=C(OC1CCOC1=O)c1ccccc1C(=O)c1ccc(Cl)c([N+](=O)[O-])c1", "note": "(configuration not stated)", "AC50": "> 20 µM (inactive)"},
      {"smiles": "CC1=CC2OC3CC4OC(=O)C=CC=CC(=O)OCCC(C)C(O)C(=O)OCC2(CC1O)C4(C)C31CO1", "note": "(configuration not stated)", "AC50": "0.0067 µM"},
      {"smiles": "Cc1ccc(-c2ccccc2[C@H]2[C@@H](C#N)N(c3ncc(-c4ccccc4)s3)[C@@H]2CO)cc1", "AC50": "> 20 µM (inactive)"},
      {"smiles": "C[C@H](CO)N1C[C@H](C)[C@@H](CN(C)Cc2ccc(Cl)c(Cl)c2)OCCCC[C@H](C)Oc2ccc(NS(=O)(=O)c3cccs3)cc2C1=O", "AC50": "8.38 µM"},
      {"smiles": "CC1CC(C)C(=NNC(N)=O)C(C(O)CC2CCC(=O)NC2=O)C1", "note": "(configuration not stated)", "AC50": "0.241 µM"},
      {"smiles": "Cc1ccc(N2CC(C(=O)Nc3nccs3)CC2=O)cc1Cl", "note": "(configuration not stated)", "AC50": "8.73 µM"},
      {"smiles": "COc1ccc(S(=O)(=O)N(C)C[C@H]2Oc3ccc(NC(=O)Nc4ccc(C(F)(F)F)cc4)cc3C(=O)N([C@@H](C)CO)C[C@H]2C)cc1", "AC50": "> 20 µM (inactive)"},
      {"smiles": "CC(=O)OCC12CC(OC(=O)CC(C)C)C(C)=CC1OC1C(O)C(OC(C)=O)C2(C)C12CO2", "note": "(configuration not stated)", "AC50": "2.74 µM"},
      {"smiles": "O=C(C[C@@H]1CC[C@@H]2[C@H](COC[C@H](O)CN2Cc2cc(F)ccc2F)O1)NCc1ccc(Oc2ccccc2)cc1", "AC50": "6.77 µM"},
      {"smiles": "CC1=NNC(=O)C1Br", "note": "(configuration not stated)", "AC50": "7.86 µM"},
      {"smiles": "CC(=NNC(=S)N1CC2CCC(CC2)C1)c1nccs1", "AC50": "> 7 µM (inactive)"},
      {"smiles": "COc1ccc(/C=C2/CCC(CN3CCOCC3)C2=O)cc1", "note": "(configuration not stated)", "AC50": "3.67 µM"},
      {"smiles": "C[C@@H]1CN([C@@H](C)CO)C(=O)c2ccccc2-c2ccccc2CO[C@H]1CN(C)Cc1ccccc1C(F)(F)F", "AC50": "8.01 µM"},
      {"smiles": "CC1OC(OC2C(O)CC(OC3C(O)CC(OC4CCC5(C)C(CCC6C5CCC5(C)C(C7=CC(=O)OC7)C(O)CC65O)C4)OC3C)OC2C)CC(O)C1O", "note": "(configuration not stated)", "AC50": "0.943 µM"},
      {"smiles": "C[C@@H]1CN([C@@H](C)CO)C(=O)c2cc(C#CCc3ccccc3)cnc2O[C@@H]1CN(C)C(=O)C1CCOCC1", "AC50": "7.23 µM"},
      {"smiles": "Cc1ccc(OC(=O)N(C)C[C@@H]2OCc3ccccc3-c3c(n(C)c4ccccc34)C(=O)N([C@@H](C)CO)C[C@H]2C)cc1", "AC50": "7.62 µM"},
      {"smiles": "C[C@H]1CN([C@@H](C)CO)C(=O)c2c(c3ccccc3n2C)-c2ccccc2CO[C@H]1CN(C)C(=O)Nc1cccc(C(F)(F)F)c1", "AC50": "8.34 µM"},
      {"smiles": "Cn1cc(C2=C(c3cn(CCCSC(=N)N)c4ccccc34)C(=O)NC2=O)c2ccccc21", "AC50": "0.67 µM"},
      {"smiles": "COc1ccc2c3c(n(C)c2c1)[C@H](CO)N(C(=O)Nc1ccc(F)cc1)CC31CCN(C(=O)Nc2ccc(F)cc2F)CC1", "AC50": "> 7 µM (inactive)"},
      {"smiles": "COc1ccc(/C=C\\c2nc(=O)c3ccccc3o2)cc1", "AC50": "7.67 µM"},
      {"smiles": "CC[C@@]1(O)C(=O)OCc2c1cc1n(c2=O)Cc2cc3ccccc3nc2-1", "AC50": "0.961 µM"},
      {"smiles": "C[C@H]1CN([C@@H](C)CO)C(=O)c2cccc(NC(=O)Nc3ccc(F)cc3)c2O[C@H]1CN(C)S(=O)(=O)c1ccc(Cl)cc1", "AC50": "4.87 µM"},
      {"smiles": "Cc1c2oc3c(C)ccc(C(=O)OC(C)C4NC(=O)C(C(C)C)N(C)C(=O)CN(C)C(=O)C5CCCN5C(=O)C(C(C)C)NC4=O)c3nc-2c(C(=O)OC(C)C2NC(=O)C(C(C)C)N(C)C(=O)CN(C)C(=O)C3CCCN3C(=O)C(C(C)C)NC2=O)c(N)c1=O", "note": "(configuration not stated) (I: cyclo([Sar][NMeV]TVP) / II: cyclo([Sar][NMeV]TVP); linker I:3-II:3 via Actinocin(9to1); configuration not given here)", "AC50": "0.0309 µM"},
      {"smiles": "COc1c(O)cc2oc3cc(O)c(CC=C(C)C)c(O)c3c(=O)c2c1CC=C(C)C", "AC50": "3.6 µM"},
      {"smiles": "C[C@@H]1O[C@@H](O[C@H]2C[C@@H](O)[C@]3(CO)C4C(CC[C@]3(O)C2)[C@@]2(O)CC[C@H](C3=CC(=O)OC3)[C@@]2(C)C[C@H]4O)[C@H](O)[C@H](O)[C@H]1O", "note": "(some centres not stated)", "AC50": "0.294 µM"},
      {"smiles": "COCCn1c(C)cc(C(=O)COC(=O)c2ccc(Cl)c(S(N)(=O)=O)c2)c1C", "AC50": "> 20 µM (inactive)"},
      {"smiles": "C[C@@H]1CN([C@H](C)CO)C(=O)c2cc(NS(=O)(=O)c3cccs3)ccc2O[C@@H](C)CCCCO[C@H]1CN(C)Cc1ccc(Cl)c(Cl)c1", "AC50": "> 20 µM (inactive)"},
      {"smiles": "CC(C)[C@H](N)C(=O)N[C@H]1CCC2C3CC=C4C[C@@H](O)CC[C@]4(C)C3CC[C@@]21C", "note": "(some centres not stated)", "AC50": "2.97 µM"},
      {"smiles": "C[C@@H]1CN([C@@H](C)CO)C(=O)c2c(c3ccccc3n2C)-c2ccccc2CO[C@@H]1CN(C)C(=O)c1cc(Cl)cc(Cl)c1", "AC50": "> 20 µM (inactive)"},
      {"smiles": "N#CC(C#N)=NNc1ccc(OC(F)(F)F)cc1", "AC50": "3.97 µM"},
      {"smiles": "O=C(Nc1nnc(C2CC2)s1)C1CC(=O)N(c2ccc3c(c2)OCCO3)C1", "note": "(configuration not stated)", "AC50": "> 20 µM (inactive)"},
      {"smiles": "NCCOc1ccc(C23CC4CC(CC(C4)C2)C3)cc1", "AC50": "5.74 µM"},
      {"smiles": "COc1cccc(/C=N/Nc2ccc(C(=O)O)cc2)c1O", "AC50": "1.33 µM"},
      {"smiles": "O=C(C1CC1)N1C[C@@H]2N[C@H](C1)C2c1ccc(-c2cccc(F)c2)cc1", "note": "(some centres not stated)", "AC50": "6.91 µM"},
      {"smiles": "CC(=O)OC1C(=O)OCC23CCC4(C)OC4C2OC2CC(OC(=O)C=CC=CC(=O)OCCC1C)C3(C)C21CO1", "note": "(configuration not stated)", "AC50": "0.0056 µM"},
      {"smiles": "CC[C@@]1(O)C(=O)OCc2c1cc1n(c2=O)Cc2cc3c(CN(C)C)c(O)ccc3nc2-1", "AC50": "0.9 µM"}
    ]}
  ]
}
